Experiment [1] relates to barnyardgrass (Echinochloa crus-galli). Description: Example 4: herbicidal activity, soil treatment, weed sown 9 days after treatment. It is filed as in vivo. The settings on record: score 0 to 100; 1,000 g/ha; 29 days after the chemical treatment (20 days after sowing). How it is done:
(§1) Plastic pots each having a diameter of 24 cm and a height of 21 cm were filled with the soil. A water dilution of a glyphosate potassium salt (liquid formulation containing 48% of a glyphosate potassium salt, manufactured by Nissan Chemical Industries, Ltd. under the trade name of Roundup Maxload) was prepared. A mixed solution of a water dilution of a flumioxazin water dispersible granule (water dispersible granule containing 51% of flumioxazin, manufactured by Valent USA Corporation under the trade name of Valor SX) and a water dilution of a saflufenacil was prepared. A mixed solution of a water dilution of a glyphosate potassium salt, a water dilution of a flumioxazin water dispersible granule and a water dilution of Saflufenacil was prepared. Each of the solutions thus prepared above was uniformly sprayed over the pots using a sprayer in an amount of 500 L/ha. The water dilution of saflufenacil was prepared by dissolving a predetermined amount of saflufenacil in acetone containing 2% (w/v) of Tween 20 (surfactant, manufactured by Tokyo Chemical Industry Co., Ltd.) and diluting the solution with water so that the acetone concentration will be 10 volume %.
(§2) After a chemical treatment, the pots were put in a greenhouse. […]
Seedlings of the plant were cultivated in the greenhouse and, 29 days after the chemical treatment (20 days after sowing), herbicidal activity was evaluated.

Experiment [2] concerns ivyleaf morningglory (Ipomoea hederacea). Description: Example 3: herbicidal activity, soil treatment, weed sown 21 days after treatment. The experiment is classed as in vivo. To be noted: score 0 to 100; 20 g/ha; 45 days after the chemical treatment (24 days after sowing). How it is done:
as §1, with “of saflufenacil” for “of a glyphosate potassium salt (liquid formulation containing 48% of a glyphosate potassium salt, manufactured by Nissan Chemical Industries, Ltd. under the trade name of Roundup Maxload)”, “a glyphosate potassium salt (liquid formulation containing 48% of a glyphosate potassium salt, manufactured by Nissan Chemical Industries, Ltd. under the trade name of Roundup Maxload)” for “a saflufenacil”, “of saflufenacil,” for “of a glyphosate potassium salt,”, “of a glyphosate potassium salt” for “of Saflufenacil”
as §2
Seedling of the plant were cultivated in the greenhouse and, […] after the chemical treatment (24 days after sowing), herbicidal activity was evaluated.

Where a name gives a salt, the structure may show the parent alone.

For `O=C(O)CNCP(=O)(O)O` [Glyphosate potassium salt, glyphosate-potassium], the “Herbicidal activity Barnyardgrass” value in experiment [1] is recorded as 0.
Turning to `CC(C)N(C)S(=O)(=O)NC(=O)c1cc(-n2c(=O)cc(C(F)(F)F)n(C)c2=O)c(F)cc1Cl` [Saflufenacil, N′-{2-chloro-4-fluoro-5-[1,2,3,6-tetrahydro-3-methyl-2,6-dioxo-4-(trifluoromethyl)pyrimidin-1-yl]benzoyl}-N-isopropyl-N-methylsulfamide], the “Herbicidal activity Ivyleaf morningglory” value in experiment [2] is 45.

Source of the values: patent US20130143742A1, “HERBICIDAL COMPOSITION” (SUMITOMO CHEMICAL COMPANY, LIMITED, priority 2011, published 2013).
